Assay results published in patent US6696484B2, “Method and compositions for regulation of 5-alpha reductase activity” (University of Chicago Office of Technology and Intellectual …, priority 1997, dated 2004).
Several values for one entry are separate records, joined by “and”; a condition that tells them apart may be missing. Equal entries are not always repeated.

Assays:
[1] = target: T1, type 2 human 5α-reductase (Homo sapiens, UniProt P31213); assay: Cell-free enzymatic assay of 5α-reductase (testosterone to DHT), type 2; format: biochemical; design: expressed in transfected cells; host or cells: rat 1A cells infected with pMV7 retrovirus and selected with G418; microsomes for the cell-free assay; conditions: for IC50: microsomes from rat 1A cells expressing human type 2 5α-reductase, read-out: Cell-free assay IC50, 5α-reductase Type 2; for inhibition at 100 µM: read-out: percent inhibition of 5α-reductase activity, cell-free assay, Type 2, 100 μM compound
T1 sequence (P31213 1-254): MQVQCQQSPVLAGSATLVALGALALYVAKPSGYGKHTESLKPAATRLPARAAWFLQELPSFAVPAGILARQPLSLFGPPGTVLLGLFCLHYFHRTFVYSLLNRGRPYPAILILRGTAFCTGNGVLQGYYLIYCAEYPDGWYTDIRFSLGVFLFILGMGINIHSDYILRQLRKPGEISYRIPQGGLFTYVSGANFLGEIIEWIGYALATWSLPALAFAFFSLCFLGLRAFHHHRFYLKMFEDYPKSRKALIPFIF

[2] = target: T2, type 1 human 5α-reductase (Homo sapiens, UniProt P18405); assay: Whole-cell assay of 5α-reductase, type 1; format: cell-based; design: expressed in transfected cells; host or cells: rat 1A cells infected with pMV7 retrovirus and selected with G418; microsomes for the cell-free assay, intact cells for the whole-cell assay; conditions: for IC50: rat 1A cells expressing human type 1 5α-reductase; for inhibition at 100 µM: read-out: percent inhibition of 5α-reductase activity, whole-cell assay, Type 1
T2 sequence (P18405 1-259): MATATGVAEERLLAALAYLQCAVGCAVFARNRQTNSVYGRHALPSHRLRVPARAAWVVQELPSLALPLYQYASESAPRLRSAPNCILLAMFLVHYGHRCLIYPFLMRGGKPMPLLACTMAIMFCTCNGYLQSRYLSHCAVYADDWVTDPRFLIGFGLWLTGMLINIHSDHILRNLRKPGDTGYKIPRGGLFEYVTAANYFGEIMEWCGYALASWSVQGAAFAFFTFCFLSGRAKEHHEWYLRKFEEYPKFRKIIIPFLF

[3] = target: T2, type 1 human 5α-reductase; assay: Cell-free enzymatic assay of 5α-reductase (testosterone to DHT), type 1; conditions: for inhibition at 100 µM: read-out: percent inhibition of 5α-reductase activity, cell-free assay, Type 1, 100 μM compound; for percent inhibition of 5α-reductase activity, cell-free assay, Type 1: 100 μM compound
[4] = target: T1, type 2 human 5α-reductase; assay: Whole-cell assay of 5α-reductase, type 2; format: cell-based; design: expressed in transfected cells; host or cells: rat 1A cells infected with pMV7 retrovirus and selected with G418; intact cells for the whole-cell assay; conditions: for IC50: rat 1A cells expressing human type 2 5α-reductase; for inhibition at 100 µM: read-out: percent inhibition of 5α-reductase activity, whole-cell assay, Type 2, 100 μM compound
5α-reductase = assay: Cell-free 5α-reductase assay, isozyme not given; format: biochemical, human; conditions: isozyme not stated
hamster flank organ [5] = assay: Testosterone-stimulated growth of the pigmented macules of hamster flank organs; format: in vivo, Syrian golden hamsters; conditions: 0.5 μg testosterone + 1 mg compound topically daily, 18 days; for Pigmented macule area: castrated male hamsters, mean±SEM;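 for all read-outs here: prepubertal Syrian golden hamsters castrated at 4 weeks, ethanol vehicle on one flank organ, macule long and short axes gauged by caliper 1 day after final dose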
hamster flank organ [6] = assay: DHT-stimulated growth of the pigmented macules of hamster flank organs; format: in vivo, Syrian golden hamsters
Procedure: Prepubertal male Syrian golden hamsters, castrated at 4 weeks of age, were obtained from Harlan Sprague-Dawley Co. (Madison, Wis.). Bilateral orchiectomy was performed under anesthesia. The hamsters were housed individually in plastic cages and had free access to Purina rodent chow and water, and were maintained on a 12-h light/12-h dark cycle. Hamsters were used 1-2 weeks after castration and were divided into groups of 4-6 or 9-11 animals. Hair on the lower back of each animal was shaved weekly with an electric hair clipper to expose the flank organs. A treatment solution (5 μl with ethanol as vehicle) was applied topically to the flank organ once a day using a Pipetteman and a polypropylene disposable tip. The treatment solution contained either (a) ethanol alone, (b) an androgen (testosterone or DHT), (c) a test compound, or (d) a combination of an androgen and a test compound. For each hamster, one flank organ was treated while the other organ was not treated. The surface of the flank organ was wiped with an alcohol pad to remove residual compound before each treatment. At the end of each experiment (18 days), animals were killed by CO2 asphyxiation or an intraperitoneal injection of […]. Flank organs from both the treated and untreated sides were examined 1 day after the last treatment by the methods described below. The body weight of each animal was recorded before and after treatment. Experiments were repeated at least twice to assure reproducibility. The “Guide for the care and use of laboratory animals” (NIH publication no. 85-28, revised 1988) and the regulations of the U.S. Department of Agriculture were followed throughout the experiments.
In this study, the growth of the flank organ was determined by measuring the length of the long axis and the short axis of the pigmented spot (pigmented macule) with a caliper with a digital display (Digimatic; Mitutoyo Corporation, Japan). The surface area (in millimeters squared) of the spot was calculated as the product of the long axis and the short axis (Gomez and Frost 1975). The areas of the pigmented spots after treatment with ethanol alone or with test compound (in ethanol) alone were less than 10% of the areas of the pigmented spots after treatment with testosterone alone. These values were deducted from the experimental values and are compared in Tables 8-10. For each experiment, the means and standard error of the means (SEM) of the areas of the untreated and treated macules were computed separately for each treatment group. Within each experiment, an overall F-test (one way ANOVA) was used to test the null hypothesis that the mean sizes of the treated macules were the same in all groups, and Dunnett's multiple range test was used to examine differences between the treatment groups (i.e., green tea catechin+androgen, fatty acid+androgen, EGC derivative+androgen, or fatty acid derivative+androgen) and the control group (androgen treatment only). The Mann-Whitney test was used to examine differences between DHT-treated and the DHT and EGCG-treated groups. P-values <0.05 were taken as indicating statistical significance in all tests (Hochberg and Tamhane 1987).
Each group comprised four to six castrated male hamsters. At the end of the treatment period, the areas of the pigmented macules were determined and are presented as means±SEM in Table 8.
Each group comprised four to six castrated male hamsters. At the end of the treatment period, the areas of the pigmented macules were determined and are expressed as means±SEM as shown in Table 10.

## O=C1C=CC(=C(c2ccc(O)c(O)c2)c2ccccc2S(=O)(=O)O)C=C1O (mixture of isomers) [Pyrocatechol violet, pyrocatecholsulfonephthalein]
[1]
  IC50: 100 µM

## O=C1c2ccccc2C(=O)c2c1cc(S(=O)(=O)[O-])c(O)c2O.[Na+] [Alizarin red S]
[2]; 100 μM compound
  percent inhibition of 5α-reductase activity, whole-cell assay, Type 1: 22%

## CC/C=C\C/C=C\C/C=C\CCCCCCCC(=O)O [Alpha-Linolenic Acid, Alpha-Linolenic Acid C18:3 CIS 9,12,15]
[3]
  IC50: 8 µM
  inhibition at 100 µM: 99%
[2]
  IC50: 29 µM
[2]; 100 μM compound
  inhibition at 100 µM: 82%
[4]
  IC50: 23 µM
  inhibition at 100 µM: 86%
[1]
  IC50: 9 µM
  inhibition at 100 µM: 84%

## O=C1c2ccccc2C(=O)c2ccccc21 [Anthraquinone]
5α-reductase
  IC50: > 100 µM

## O=C(/C=C/c1ccc(O)c(O)c1)OCCc1ccccc1 [Caffeic acid phenethyl ester]
[3]
  inhibition at 100 µM: 97%
5α-reductase
  IC50: 25 µM
[2]; 100 μM compound
  inhibition at 100 µM: 99%
[4]
  inhibition at 100 µM: 98%
[1]
  inhibition at 100 µM: 36%

## O=c1cc(-c2ccccc2)oc2cc(O)cc(O)c12 [Chrysin]
[3]
  inhibition at 100 µM: 2%
[1]
  inhibition at 100 µM: 1%

## COc1cc(/C=C/CO)ccc1O [Coniferol, coniferyl alcohol]
[3]
  inhibition at 100 µM: 10%
[1]
  IC50: 100 µM
  inhibition at 100 µM: 49%

## COc1cc(/C=C/C(=O)CC(=O)/C=C/c2ccc(O)c(OC)c2)ccc1O [Curcumin]
Hamster flank organ [5]
  Inhibition (percent decrease in macule area vs androgen-treated macules): 87%
  Pigmented macule area: 2.40 ± 0.65 mm^2
Hamster flank organ [6]; 0.5 μg DHT + 1 mg compound topically daily, 18 days
  Inhibition (percent decrease in macule area vs androgen-treated macules): 31%
Hamster flank organ [6]; 0.5 μg DHT + 1 mg compound topically daily, 18 days, mean±SEM
  Pigmented macule area: 9.50 ± 0.21 mm^2

## C[C@]12CCC(=O)C[C@@H]1CC[C@@H]1[C@@H]2CC[C@]2(C)[C@@H](O)CC[C@@H]12 [DHT, 5α-dihydrotestosterone, reference compound]
Hamster flank organ [6]; 0.5 μg DHT alone topically daily, 18 days, mean±SEM
  Pigmented macule area, androgen alone (control): 20.80 ± 1.10 mm^2 and 13.67 ± 0.96 mm^2
Hamster flank organ [6]; 0.5 μg DHT per flank organ per day
  stimulation of flank organ growth relative to the maximum stimulation: 50-70%

## COc1cc(CCC(=O)CC(=O)CCc2ccc(O)cc2)ccc1O [Demethoxytetrahydrocurcumin, demethoxytetrahydrocurcumin]
[3]
  percent inhibition of 5α-reductase activity, cell-free assay, Type 1: 23%

## CCCC/C=C\CCCCCCCC(=O)O[C@@H]1Cc2c(O)cc(O)cc2O[C@@H]1c1cc(O)c(O)c(O)c1 [EGC-myristoleate, EGC-3-myristoleate]
Hamster flank organ [5]
  Inhibition (percent decrease in macule area vs androgen-treated macules): 71%
  Pigmented macule area: 5.00 ± 0.42 mm^2
Hamster flank organ [5]; listed as EGC-3 ester of MA
  Inhibition (percent decrease in macule area vs androgen-treated macules): about 70%
[2]
  IC50: < 15 µM
[4]
  IC50: < 15 µM

## CCCCC/C=C\C/C=C\C/C=C\CCCCC(=O)O[C@@H]1Cc2c(O)cc(O)cc2O[C@@H]1c1cc(O)c(O)c(O)c1 [EGC-γ-linoleneate acid, EGC-γ-linoleneate]
Hamster flank organ [5]
  Inhibition (percent decrease in macule area vs androgen-treated macules): 68%
  Pigmented macule area: 5.50 ± 0.56 mm^2
Hamster flank organ [5]; listed as EGC-3 ester of γ-LA
  Inhibition (percent decrease in macule area vs androgen-treated macules): about 70%
[2]
  IC50: < 15 µM
[4]
  IC50: < 15 µM

## O=c1oc2c(O)c(O)cc3c(=O)oc4c(O)c(O)cc1c4c23 [Ellagic acid]
5α-reductase
  IC50: > 100 µM

## O=c1ccc2cc(O)c(O)cc2o1 [Esculetin, 6,7-dihydroxycoumarin]
[3]
  inhibition at 100 µM: 7%
5α-reductase
  IC50: > 100 µM
[1]
  inhibition at 100 µM: 13%

## C=CCc1ccc(O)c(OC)c1 [Eugenol]
[1]
  IC50: 100 µM

## COc1cc2ccc(=O)oc2c(O)c1O [Fraxetin, 7,8-dihydroxy-6-methoxycoumarin]
[3]
  inhibition at 100 µM: 2%
5α-reductase
  IC50: > 100 µM
[1]
  inhibition at 100 µM: 8%

## CCCCC/C=C\C/C=C\C/C=C\CCCCC(=O)O [Gamma-Linolenic Acid, Gamma-Linolenic Acid C18:3 CIS 6.9,12]
Hamster flank organ [5]
  Inhibition (percent decrease in macule area vs androgen-treated macules): 82%
  Pigmented macule area: 3.15 ± 0.42 mm^2

## CCCCC/C=C\C/C=C\CCCCCCCC(=O)O [Linoleic Acid, Linoleic Acid C18:2 CIS 9,12]
[3]
  inhibition at 100 µM: 99%
[2]; 100 μM compound
  inhibition at 100 µM: 78%
[4]
  inhibition at 100 µM: 77%
[1]
  inhibition at 100 µM: 85%

## O=c1c(O)c(-c2ccc(O)cc2O)oc2cc(O)cc(O)c12 [Morin]
[3]
  inhibition at 100 µM: 6%
[1]
  inhibition at 100 µM: 33%

## CC(Cc1ccc(O)c(O)c1)C(C)Cc1ccc(O)c(O)c1 (centres unmarked) [Nordihydroguaiaretic acid]
[3]
  IC50: 19 µM
[2]
  IC50: 19 µM
[1]
  inhibition at 100 µM: 80%

## O=C1c2ccccc2C(=O)c2c(O)c(O)cc(O)c21 [Purpurin]
[3]
  inhibition at 100 µM: 95%
[1]
  inhibition at 100 µM: 20%

## O=c1c(O)cccc2cc(O)c(O)c(O)c12 [Purpurogallin]
[3]
  inhibition at 100 µM: 81%
[1]
  inhibition at 100 µM: 31%

## O=c1ccc2c(-c3ccccc3S(=O)(=O)O)c3ccc(O)c(O)c3oc-2c1O [Pyrogallol red, pryrogallolsulfonephthalein]
[3]
  inhibition at 100 µM: 97%
[1]
  inhibition at 100 µM: 27%

## C[C@@H]1O[C@@H](OC[C@H]2O[C@@H](Oc3c(-c4ccc(O)c(O)c4)oc4cc(O)cc(O)c4c3=O)[C@H](O)[C@@H](O)[C@@H]2O)[C@H](O)[C@H](O)[C@H]1O [Rutin]
[3]
  inhibition at 100 µM: 4%
[1]
  inhibition at 100 µM: 0%

## CCCC/C=C\CCCCCCCC(=O)O [myristoleic acid]
Hamster flank organ [5]
  Inhibition (percent decrease in macule area vs androgen-treated macules): 73%
  Pigmented macule area: 4.63 ± 0.66 mm^2

## cis or traps-9,11 or 10,12 octadecadienoic acid [Conjugated Octadecadienonic Acid]
[3]
  percent inhibition of 5α-reductase activity, cell-free assay, Type 1: 99%
[3]; read-out: Cell-free assay IC50, 5α-reductase Type 1, microsomes from rat 1A cells expressing human type 1 5α-reductase
  IC50: 10 µM
[1]; 100 μM compound
  percent inhibition of 5α-reductase activity, cell-free assay, Type 2: 81%
[1]
  IC50: 30 µM
